Source: a melting point compilation (Tetko et al.; mined from patent text by program, amines drawn as free bases though some values may be those of a salt)

Structure (SMILES) | melting point [°C]
O=C(O)CCOc1cccc2c1Cc1sc(SCCC(c3ccccc3)c3ccccc3)nc1-2 | 113 to 114
COc1ccc(C(=O)Nc2c(Cl)cncc2Cl)c2c3cc(Cl)ccc3n(Cc3ccccc3)c12 | 210 to 213
Clc1cc(CCc2ccccn2)c2oc(-c3cccc4cccnc34)nc2c1 | 110 to 111
C=C1CCN(S(=O)(=O)c2ccc(Cl)c(C(=O)O)c2)CC1 | 157 to 160
O=c1[nH]c2ccc3ccccc3c2n(CCc2ccccc2)c1=O | 268
C=C(C)CN1C(=O)CC(=O)N(c2ccccc2)c2cc(Cl)ccc21 | 149 to 151
CCOP(=O)(/C=C/c1cn(-c2ccccc2)nc1OCc1ccc(OCc2sc(-c3ccccc3)nc2C)c(OC)c1)OCC | 113 to 114
COC(=O)C(c1ccc(Cl)cc1)(c1ccc(Cl)cc1)c1ncc[nH]1 | 132
CC(=O)c1ccc(C(=O)Nc2ccc(-n3nc(C(F)(F)F)cc3C(F)(F)F)cc2)cc1 | 203 to 204
O=C(NCCC1OCCO1)c1ccc[nH]1 | 133 to 135
CN(CCCNc1ncc(Cc2ccccc2)c(=O)[nH]1)c1ccccn1 | 75 to 85
COC(=O)C(=O)c1ccc(OCCOc2ccc3ccccc3c2)c(C)c1 | 118 to 119
Cc1ccc(S(=O)(=O)OC2=C(Br)C(=O)c3c(ccc4c3CCC(C)(C)O4)C2=O)cc1 | 109 to 115
O=C1c2ccccc2C(=O)N1CCc1c[nH]c2ccc(Br)cc12 | 206 to 209
CCCCCCCCCCCCCCCc1cc(OCC(COC(=O)NCCCCCn2cnnn2)Oc2cc(C)on2)no1 (racemic) | 82 to 84
NC1CCCC(C(=O)N2CCC(c3[nH]nc4c3C(=O)c3c(NC(=O)NN5CCOCC5)cccc3-4)CC2)C1 (stereo not drawn) | 201 to 203
CC/C(=C\c1cccc(OCc2nc(-c3ccc(C(F)(F)F)cc3)oc2C)c1)Cn1oc(=O)[nH]c1=O | 124 to 125
O=C1CC2(CCNCC2)c2cc(Br)ccc2N1 | 218
COc1cc(C(=O)Cc2ccccc2C)ccc1O | 79 to 81
CC(C)CNCC(=O)Nc1ccc2c(c1)C(=O)c1cc(NC(=O)CNCC(C)C)ccc1C2=O | 146
COC(=O)[C@@H]1C[C@@H](OS(C)(=O)=O)CN1C(=O)C1(C(F)(F)F)CC1 | 123 to 124
CON=C(C)C(C)=NOc1ncccc1N(OC)C(=O)OC | 86 to 88
CCc1cc(C#N)ccc1N1C(=O)C(=O)N(C(C)(C)CC)C1=S | 173
COc1cc(CCc2ccc(Nc3ccccc3C(=O)O)cc2)cc(OC)c1OC | 146 to 147
N#Cc1c(N2CCCCC2)cc(-c2ccccc2)c2c1-c1ccccc1C2=O | 166 to 168

Structure (SMILES) | melting point [°C]
COC(=O)C1(O)Cc2cc(Cl)ccc2C1=O (single isomer, unassigned; (+)) | 163 to 165
Cc1nc(NC(=O)c2cnn3c(C(F)F)cc(-c4ccc(C(F)(F)F)cc4)nc23)sc1S(=O)(=O)NCCN(C)C | 217
Nc1nc2cc3c(cc2[nH]1)OCO3 | 230 to 243
Cc1ccc(-c2ccc(C(=O)Nc3ccc4nc(CN5CCCCC5)ccc4c3)cc2)cc1 | 198 to 200
CCOC(=O)c1cnc2n(c1=O)CCC(C)C2=NNc1ccccc1 (stereo not drawn) | 108 to 110
O=C1Cc2cccc(S(=O)(=O)c3ccc(Cl)cc3)c2N1 | 218 to 221
CCOC(=O)N1C(NC(C)C)=NS(=O)(=O)c2c1sc(C)c2C#N | 116 to 119
CCC(=O)N1CCC(COc2cccc3nc(C)c(C(=O)O)c(N)c23)CC1 | 168 to 170
O=Cc1c2ccc3ccccc3c2cc2ccsc12 | 199 to 200
CC1(C=O)CC1(c1ccc(F)cc1)c1ccc(F)cc1 (stereo not drawn) | 110 to 113
Cc1cccc2ncc(C(=O)Nc3ccccc3)c(=O)n12 | 186 to 188
Cn1c2c(c3ccccc31)CCN1C(=O)CCC21C (stereo not drawn) | 132 to 134
O=C(Oc1ccc(Cl)c(OCC2CC2(Cl)Cl)c1)N1CCCC1 (stereo not drawn) | 72 to 74
CCCCC(CNC(C)=O)(Cn1cncn1)c1ccccc1 (stereo not drawn) | 112 to 115
O=C(CCl)Nc1ccccc1O | 133 to 134
N#Cc1ccc(-c2ccc(S(=O)(=O)NCc3ccncc3)cc2)cc1 | 198 to 202
Cc1[nH]c(C(=O)Nc2ccc3[nH]ccc3c2)c(C)c1-c1nc2ccc(C(=O)c3ccccc3)cc2[nH]1 | 167 to 169
OCc1ccc2c(Cl)ccnc2c1 | 138 to 139
CCOCCCN(C)Cc1ccc(NC(=O)C2=Cc3cc(-c4ccc(OCC)cc4)ccc3N(C)CC2)cc1 | 129 to 131
COc1cc2cc3c(ccc4ccccc43)nc2cc1OC | 181 to 182
O=[N+]([O-])c1ccc(N2CCN(Cc3ccccc3)CC2)nc1CS(=O)(=O)c1ccccc1 | 175 to 176
Cc1cccc(NC(=O)NC2N=C(c3ccccc3)c3ccsc3N(C)C2=O)c1 (stereo not drawn) | 128 to 130
CCOC(=O)C1=C(C)NC(C)=C(C(=O)OCCOC)C1c1cccc(Cl)c1Cl (stereo not drawn) | 139
CN(C)c1ccc(CNc2nc(Nc3cccc(NS(C)(=O)=O)c3)nc3[nH]cnc23)cc1 | 138 to 142
c1cncc(CN2CCN(CCCCc3c[nH]c4ccc(-n5cnnc5)cc34)CC2)c1 | 110 to 112

Structure (SMILES) | melting point [°C]
COCCN1C(=O)CCCc2c1ccc(Nc1ncc(Cl)c(Nc3ccc(N4CCOCC4)cc3OC)n1)c2OC | 136 to 138
CC(=O)N(C)C1=C(C#N)CC(N)(C(=O)CCCl)C=C1 (stereo not drawn) | 174 to 175
Nc1c([N+](=O)[O-])cc(F)c(Cl)c1F | 96 to 97
C[C@H](CSC(=O)C1CCCCC1)C(=O)N1CSC[C@H]1C(=O)O | 79.5 to 80
NS(=O)(=O)c1cc(Br)cc(C(F)(F)F)c1 | 174 to 175
CCOC(=O)c1c(N2CCN(C(=O)c3cccs3)CC2)c2cccnc2n(Cc2ccccc2)c1=O | 168
COC(=O)NC(=O)Nc1nc2c(C)cccc2s1 | 272 to 280
CCCOc1nc2c(Cl)scc2c(=O)n1CCC | 93 to 95
COc1ccc2c(c1)CCN(Cc1cnc(C)nc1N)C2 | 142 to 143
N=C(N)Nc1nc(CSCCNC2=NS(=O)N=C2O)cs1 (stereo not drawn) | 148 to 151
CC(C)(CCP(=O)(O)O)c1ccc(O)cc1 | 192 to 195
COc1ccc(COCC(O)CO)cc1 (stereo not drawn) | 51 to 53
Cc1cccc(-c2cc(C(F)(F)F)cc3c2OC(CN)C3)c1 (stereo not drawn) | > 250
O=S(=O)(Nc1ccc2c(OCc3ccc(-c4ccccc4)cc3F)cccc2c1)C(F)(F)F | 123 to 125
CCOC(OCC)c1coc2cc3c(cc2c1=O)OCO3 | 123 to 125
COc1cc2ncnc(N3CCC(C(C)CN4CCCS4(=O)=O)C(O)C3)c2cc1OC (stereo not drawn) | 173 to 174
COc1cc(NC(=O)OC(C)(C)C)c(Cl)c(OC)c1 | 94.5 to 95.5
O=C1c2ccccc2N(Cc2cccs2)C2=NCCN12 | 124 to 127
Cc1ccc(-c2csc(C(=O)Nc3nnn[nH]3)n2)cc1 | 276 to 278
COC(=O)COc1cccc(C=Cc2nc(-c3ccccc3)c(-c3ccccc3)o2)c1 | 79 to 82
CC1CCc2c(N3CCC(O)CC3)c(F)cc3c(=O)c(C(=O)O)cn1c23 (stereo not drawn) | 244 to 247
N#Cc1ccc(NC(=O)OCc2cccnc2)cc1 | 205 to 207
O=C(O)c1cc(Oc2ccc(C(F)(F)F)cc2Cl)ccc1Cl | 103 to 104
Cc1cc(C)c2ncc(NC(=O)C=Cc3ccc(O)cc3)c(-c3ccccc3Cl)c2c1 | 228 to 230
O=C(O)c1ccc(C(=O)Nc2cccc3cc(Br)cnc23)cc1 | > 300

Structure (SMILES) | melting point [°C]
CCCn1c(=O)cc(-n2nc(-c3c(-c4ccccc4)nn4ccccc34)ccc2=O)n(CC(=O)OC)c1=O | 143 to 145
O=[N+]([O-])c1ccccc1Nc1ccccc1O | 67 to 70
CC1(C)CCC(C)(C)c2cc(C(=O)Nc3ccc(OCCN4CCOCC4)cc3)ccc21 | 134 to 136
CC(C)(C)OC(=O)NCC(Cl)c1ccccc1 (stereo not drawn) | 57 to 59
Cc1ccc(-c2ccccc2)cc1Cn1c(C)nn(C)c1=O | 139
CC(C)(C)OC(=O)N1CCC(Oc2ccc(-c3ccc(=O)[nH]n3)c(F)c2)CC1 | 117 to 119
CS(=O)(=O)Nc1ccc(C(O)CNC2CCN(c3ccc(CC4SC(=O)NC4=O)cc3)CC2)cn1 (stereo not drawn) | 57 to 59
COC(=O)Nc1cccc(C)c1CNc1cccn2c(CO)c(C)nc12 | 170 to 172
CC(=O)C(C(=O)c1ccccc1)=C1CCCN1 | 106 to 108
O=[N+]([O-])c1cccc2c1C1OC1CC2 (stereo not drawn) | 67
O=C(NC1CCN(CCC(O)C(=O)C(O)CCN2CCC(NC(=O)c3ccccc3)CC2)CC1)c1ccccc1 (stereo not drawn) | 154 to 155
O=S1OCCN1c1cc(-c2ccnc(Nc3cccc(Cl)c3)n2)ccn1 (stereo not drawn) | 202 to 203
Cc1ccc(C(=O)NCc2ccccc2)cc1-c1nc(S(C)(=O)=O)nc2c1CNC(=O)N2c1c(F)cccc1F | 239 to 241
COC(=O)c1nc(Cl)c(N2CCCC2)nc1N | 245 to 248
Nc1ncccc1OCc1ccccc1C(F)(F)F | 105 to 110
O=C(Nc1ccc(-c2ncc(-c3ccc(NC(=O)C4CCCCCC4)cc3)[nH]2)cc1)c1c(F)c(F)c(F)c(F)c1F | 300 to 302
COC(=O)NC(CC(=O)c1ccc(Cl)cc1)C(=O)O (stereo not drawn) | 141 to 142
O=C1C2=C(CCCC2)C(=O)N1c1cc(OCC2=CCCSC2)c(Cl)cc1F | 134 to 137
CCOC(=O)Cc1ccc(CC(=O)c2c(O)c3cccnc3n(-c3ccccc3)c2=O)cc1 | 156 to 158
COC1CCN(c2c(F)cc3c(=O)c(C(=O)O)cn4c3c2CCC4C)CC1 (stereo not drawn) | 249 to 251
O=C(O)C1=C(CCl)CS[C@@H]2[C@H](NC(=S)Cc3cc(Cl)ccc3Cl)C(=O)N12 | 125
CCCCCCCCCCCCCCCCCCOc1cc(C(=O)N(CC(=O)O)CC(=O)O)cc([N+](=O)[O-])c1 | 110 to 112
COC(=O)CCNC1(C)CCN(c2ncc3ncnc(Nc4ccc(F)c(Cl)c4)c3n2)CC1 | 134 to 135
